Series [1] is described as follows: Photorelease (photodissociation) of NO from the metal nitrosyl in solution under illumination. In kind it is physicochemical. The conditions noted are these: for type of light that releases NO: in DMF, UV-cut filters. An excerpt:
FIG. 7(A) provides a plot of KNO values versus light power. Increase in A550 of a solution of [(PaPy3)Fe(NO)](ClO4)2 in MeCN upon illumination with a 60 W tungsten lamp (Patra et al., Inorg Chem, 42:6812-6823, 2003), KNO (×10^3 s^−1)=5.60±0.014.
FIG. 8(C) provides a plot of the electronic absorption spectrum of [(bpb)Ru(NO)(Cl)] (broken line) and [(Me2bqb)Ru(NO)(Cl)] (solid line) in DMF. Both nitrosyls are photolabile.
(§1) Dashed line: met-Mb; dash-dot line: reduced Mb; dotted line: a mixture of [(PaPy3)Ru(NO)](BF4)2 and reduced Mb (1.5:1) under ordinary light (20 min); solid line: same mixture exposed to UV (30 s). […] Dash-dot line: oxidized and dash line: reduced enzyme; dotted line: reduced enzyme plus [(PaPy3)Ru(NO)](BF4)2 under ordinary light (20 min); solid line: same mixture exposed to UV light for 30 s (Patra and Mascharak, Inorg Chem, 42:7363-7365, 2003, herein incorporated by reference).
As described herein, nitrosyls like [Fe(PaPy3)(NO)](CIO4)2 and [Mn(PaPy3)(NO)](BF4)2 are converted into the corresponding solvato species [M(PaPy3)(solv)]^2+ following NO loss. Clean isosbestic points in the multiple trace spectra (e.g., FIG. 6B and FIG. 6C) indicate that the [M(PaPy3)(NO)]^2+→[M(PaPy3)(solv)]^2+ transformation is likely devoid of other intermediates. […] Preliminary actinometric measurements have afforded a quantum yield of 0.12 for the light reaction of [Ru(PaPy3)(NO)](BF4)2 in water. Collectively, these properties indicate that the nitrosyl complexes disclosed herein are good light-induced NO donors.
The light characteristics of any one of these metal nitrosyls can be changed (tuned) with minor alterations in the ligand frames such as changing a donor atom or ring size. This is a tremendous advantage of the present approach, thereby freeing users of this technology from the light requirements of photoactive nitrosyls of the prior art, which hereto have been found serendipitously. […] (BF4)2 releases NO only under UV light (λ<350 nm).

Series [2] has as its target T1, papain (Carica papaya, UniProt P00784).
T1 sequence (P00784 134-345): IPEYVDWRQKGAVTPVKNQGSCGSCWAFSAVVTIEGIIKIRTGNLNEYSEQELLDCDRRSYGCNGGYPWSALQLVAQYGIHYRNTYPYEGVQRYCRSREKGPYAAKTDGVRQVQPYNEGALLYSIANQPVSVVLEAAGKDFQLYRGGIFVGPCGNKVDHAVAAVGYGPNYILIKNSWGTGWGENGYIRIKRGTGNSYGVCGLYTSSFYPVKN
The series is described as follows: Papain inhibition under light (l-BApNA substrate). The conditions noted are these: 3 mM nitrosyl 1 mL + papain 3 mg/mL 1 mL, 50 W tungsten lamp 3 min, 25° C., pH 6.2. In kind it is biochemical. How it is done: Twice-crystallized papain was activated by stirring the enzyme in 50 mM phosphate buffer (pH 6.2) containing 10 mM dithiothreitol (DTT) for 24 h. The solution was then passed through a Pharmacia 20 mL desalting column equipped with a BioRad FPLC absorbance/electrical-conducting detector at 4° C. The activated protein (devoid of DTT) eluted from the column in 2 minutes at a flow rate of 2 mL/min, and was subsequently lyophilized and stored at −20° C.
Papain activity was determined spectrophotometrically at 410 nm by monitoring the formation of p-nitroaniline from the substrate Nα-Benzoyl-l-arginine-p-nitroanilide (l-BApNA). A 1.5 mM stock solution of l-BApNA was prepared in 50 mM phosphate buffer (pH 6.2, 1 mM EDTA, 0.1 M NaCl) and stored at room temperature. A 4.6 μM stock solution of active papain was also prepared in 50 mM phosphate buffer (pH 6.2, 1 mM EDTA, 0.1 M NaCl) and stored at 0° C. Finally, a freshly prepared 3.0 mM stock solution of 1 was prepared in 50 mM phosphate buffer (pH 6.2, 1 mM EDTA, 0.1 M NaCl) and stored in the dark.
[…] The mixture was then exposed to a 50 W tungsten bulb (Afshar at al., Inorg Chem, 43:5736-5743, 2004) for 60 s and 350 μL of the substrate was quickly added. The residual enzyme activity was monitored at 25° C. […] After each exposure, 350 μL of the substrate was added to the solution and the residual enzyme activity was monitored at 25° C. […]

Series [3] has as its system rat aortic rings. Nature of the series: Relaxation of rat thoracic aorta rings precontracted with phenylephrine. The conditions noted are these: for concentration at which relaxation effect is shown: Ru-drug under UV light, DEA/NO control drug. How it is done:
Male rats (200-250 g; Sprague-Dawley) were stunned and killed by cervical dislocation. The thoracic aortas were carefully removed, cleaned of connective tissue and cut into 3-4 ring segments of approximately 4 mm in length. Aortic rings were mounted in 10 mL organ baths containing Krebs-bicarbonate buffer (composition (mM): Na^+ 143; K^+ 5.9; Ca^2+ 2.5; Mg^2+ 1.2; Cl^− 128; HCO3^− 25; HPO4^2− 1.2; SO4^2− 1.2; D-glucose 11) maintained at 37° C. and gassed with 95% O2/5% CO2. Tension was initially set at 1 g and reset at intervals following an equilibrium period of 1 hour during which time fresh Krebs-bicarbonate buffer was replaced every 15-20 minutes. After equilibrium, the rings were primed with KCl (4.8×10^−2 M) before a supramaximal concentration of phenylephrine (PE; 10^−6 M) was added. Once this response had stabilized, acetylcholine (ACH; 10^−6M) was added to the bath to assess the integrity of endothelium of WT vessels. If the contractions to PE were not maintained, or relaxations greater than 50% of the PE-induced tone to ACH were not observed, the tissues were discarded.
Tissues were then washed for 30 minutes (by addition of fresh Krebs-bicarbonate buffer at 15 minutes intervals) after which cumulative concentrations of PE (10^−9-10^−6 M) were added to the organ bath. The tissues were then washed over 60 minutes to restore basal tone before contracting to approximately 80% of the maximum PE-induced response. Once a stable response to PE was achieved, cumulative concentration-response curves to the NO-donors were constructed in the presence and absence of light ([…]) and the soluble […] ODQ ([…]).

Series [4] deals with reduced Mb. Nature of the series: Light-triggered NO transfer to reduced myoglobin. The conditions noted are these: aqueous solution, low intensity UV light 30 s, nitrosyl:Mb 1.5:1. In kind it is biochemical. How it is done: as §1
(§2) When this process is repeated in presence of reduced Mb, the 434 nm Soret band of reduced Mb is rapidly changed to 420 nm indicating formation of the Mb-NO adduct (FIG. 9B). Clearly [Ru(PaPy3)(H2O)](BF4)2 acts as an efficient NO donor that is activated by light. Similar results have been obtained with cytochrome c oxidase. Exposure of a mixture of [Ru(PaPy3)(H2O)](BF4)2 and reduced cytochrome c oxidase to UV light rapidly generated the NO adduct (Soret band at 428 nm, FIG. 9C). […] Other compounds according to the disclosure herein are known to, or are predicted to, have similar results with regard to being able to facilitate NO transfer to Mb and Hb.

Series [5] concerns reduced cyt c oxidase. The series is described as follows: Light-triggered NO transfer to reduced cytochrome c oxidase. In kind it is biochemical. Conditions: low intensity UV light 30 s. How it is done:
as §1, §2

In series [6] the test system is rat aortic smooth muscle cells. Nature of the series: cGMP generation in cultured rat aortic smooth muscle cells. In kind it is cell-based. How it is done: Primary rat aortic smooth muscle cells were cultured and exposed to increasing log doses of Ru—NO with and without a 5 minute exposure to low-intensity UV light (λmax=254 nm) followed by a 10 minute incubation. The cells were then lysed and the cGMP production was assayed Cyclic GMP accumulation was measured using a commercially available ELISA kit (Amersham Biosciences) as per the manufacturer instructions.

On to [(PaPy3)Fe(NO)](ClO4)2, for which, in series [1], the “wavelength of light under which NO is released” value is reported as around 500 nm. In series [1] (in MeCN, 60 W tungsten lamp), the “KNO (rate of NO loss)” value was 5.60±0.014 ×10^3 s^−1.

With [(bpb)Ru(NO)(Cl)], in series [1], the “type of light that releases NO” value was “releases NO upon illumination with UV light”.

For the compound [(PaPy3)Mn(NO)]ClO4, in series [2], the “papain enzymatic activity after exposure” value was “completely eliminating the enzymatic activity”.

Consider [(Me2bqb)Ru(NO)(Cl)], for which the “type of light that releases NO” value in series [1] is “releases NO upon illumination with visible light”.

Consider `CCN(CC)/[N+]([O-])=N/[O-].[Na+]` [DEA/NO, reference compound], for which the “concentration at which relaxation effect is shown” value in series [3] turned out to be 0.01 µM.

In the case of [(PaPy3)Ru(NO)](BF4)2, the “formation of Mb-NO adduct” value in series [4] is “conversion of reduced Mb to Mb-NO”. Further, in series [5], the “formation of cyt c oxidase NO-adduct” value is reported as “conversion of reduced cyt c oxidase to its NO-adduct”. For the same compound, in series [1], the “wavelength of light under which NO is released” value was below 350 nm. For the same compound, the “quantum yield of the light reaction” value in series [1] (in water, preliminary actinometric measurements) was determined as 0.12. In addition, in series [3], the “light dependence of relaxation effect” value is “only under exposure to light” and the “concentration at which relaxation effect is shown” value is 10 µM. Moreover, the “relaxation compared with conventional NO donor” value in series [3] (UV light) is reported as “comparable to that observed upon treatment of the tissue with a conventional NO donor (DEA/NO)”. Besides, the “contraction of tissue when the light was turned off” value in series [3] (light turned off) was around 25%. For the same compound, the “increase in cGMP production” value in series [6] (0.1 mM, low-intensity UV light (λmax=254 nm) 5 min) is 13 fold. In addition, in series [6] (dark), the “increase in cGMP concentration in the dark” value is “not observed in the dark”.

(Values after US8247399B2, “Photoactive metal nitrosyls for blood pressure regulation and cancer therapy” (The Regents of the University of California, priority 2004, dated 2012).)
